Experimental data reported in US5606061A, “Thioformamide derivatives” (Eisai Co., Ltd., priority 1991, dated 1997).
Read-outs that look alike come from different tables or passages of the source.

Columns and labels:
[1] = tested on: right ventricular papillary muscle of guinea pig; test: Activity on the action potential duration of the right ventricular papillary muscle of guinea pig (potassium channel activating effect); format: cell-based, guinea pig (Hartley); conditions: Cavia porcellus, 0.5 h, 1 Hz, 36 ±0.5° C., 30 minutes each concentration, read-out: Concn. at which APD90 is shortened to 50% of the initial one IC50 (converted)
Excerpt: (2) Activity on the action potential duration of the right ventricular papillary muscle of guinea pig
The compounds of the present invention were examined for the potassium channel activating effect by the use of the right ventricular papillary muscle of a guinea pig.
An action potential duration at 90% repolarization (hereinafter abbreviated to "APD90 ") reflects an outward potassium current. A compound having the potassium channel activating effect can activate the outward potassium channel to shorten the APD90 (see Proc. Natl. Acad. Sci., USA, 85, 8860 to 8864 (1988)).
A Hartley male guinea pig having a weight of 300 to 500 g was used. This guinea pig was killed by bleeding and the papillary muscle was extirpated from the right ventricle of the guinea pig and fixed in the Organbath. The surface of the papillary muscle was washed with Tyrode's solution at 36 ±0.5° C. through which an oxygen/carbon dioxide mixture was passed. The resulting specimen was stimulated by applying a rectangular wave pulse of 1 Hz to record the action potential by the glass microelectrode method.
After the action potential had been stabilized, the specimen was washed with Tyrode's solutions containing a test compound each for 30 minutes to determine the dose-response curve.

rat aorta = test: Vasohypotonic activity on rat aorta specimen (inhibition of KCl-induced tension); format: cell-based, rat (SD); conditions: rat aorta spiral specimen, 20 mM KCl, 30° C., KCl tension = 100%
Description: (1) Vasohypotonic activity on rat aorta specimen
The compounds of the present invention were examined for vasohypotonic activity by the use of the aorta extirpated from a rat.
A pectoral aorta was speedily extirpated from an SD male rat having a weight of 250 to 400 g and a spiral specimen was prepared from the aorta. This specimen was vertically suspended in the Organbath which was filled with the Krebs-Henseleit solution at 30° C. and through which a gas mixture comprising 95% of oxygen and 5% of carbon dioxide was passed. The change in the tension of the specimen was isotonically determined under a load of 1 g.
After the tension of the specimen has been stabilized, 20 mM of KCl was added to the bath. After the generated tension had been stabilized, a test compound was cumulatively added to the Organbath to determine the relaxation.
The extent of the relaxation, i.e., the inhibitory activity against the generation of tension was determined by taking the tension generated by the addition of KCl as 100% to calculate the IC50 value.

[2] = tested on: spontaneously hypertensive rats (SHR); test: Hypotensive activity on spontaneously hypertensive rat in waking state; format: in vivo; conditions: oral, 2 hours after administration, before administration = 100, control 93.3 ± 4.0, read-out: Blood pressure
Description: (4) Hypotensive activity on spontaneously hypertensive rat in waking state
The compounds of the present invention were examined for hypotensive activity by orally administrating them to spontaneously hypertensive rats (SHR).
The systolic pressure of a spontaneously hypertensive male rat (weight: 260 to 360 g) which had been fasted for 12 hours was bloodlessly determined by the tail cuff method. Each drug was suspended in a 0.5% aqueous solution of methylcellulose and orally administered in a dose of 1 mg/kg. only the solvent was administered to control rats.
The blood pressures of the rats after 2 hours from the administration are given in the Table 1 with the blood pressures before the administration being taking as 100.

[3] = tested on: anesthetized thoracotomized dog; test: Hypotensive activity and coronary bloodflow increasing activity on anesthetized thoracotomized dog; format: in vivo, dog (crossbred); conditions: Canis lupus familiaris, intravenous, 3 μg/kg
Excerpt: (3) Hypotensive activity and coronary bloodflow increasing activity on anesthetized thoracotomized dog
The compounds of the present invention were examined for hypotensive activity and coronary bloodflow increasing activity by the use of an anesthetized thoracotomized dog.
A crossbred adult dog was used. This dog was thoracotomized under inhalation anesthesia with an enflurane/laughing gas. The probe of an electromagnetic flowmeter was set on the ramus circumflexes of the left coronary artery to determine the coronary bloodflow. The arterial pressure was determined by making the tip of a catheter-tipped pressure transducer indwell in the arcus aortae.
Each test compound was intravenously administered in a dose of 3 μg/kg through a catheter inserted into the femoral vein.
The hypotensive activity and coronary bloodflow increasing activity of each test compound are given in Table 1 as the changes of the blood pressure and coronary bloodflow based on those before the administration of the compound.

[4] = change of blood pressure vs before administration, read-out: Change (%) hypotensive activity
[5] = change of coronary bloodflow vs before administration, read-out: Change (%) coronary blood-flow increasing activity

Row | SMILES | IC50 [1] [nM] | IC50 (rat aorta) [nM] | response vs control in vivo at 1 mg/kg [2] [%] | change in vivo at 0.003 mg/kg [3, 4] [%] | change in vivo at 0.003 mg/kg [3, 5] [%]
1 | CNC(=S)C1(c2ccc3nccn3c2)CCCCC1OCc1ccccc1 (stereo not drawn) [Compound 5, 2-benzyloxy-1-(imidazo[1,2-a]pyridin-6-yl)-N-methylcyclohexanecarbothioamide] | 8.91 | 0.355 |  | -8.1 | 196
2 | CNC(=S)C1(c2ccc3nccn3c2)CCCCC1OC(=O)c1ccccc1 (single isomer, unassigned; (-)) [Compound 4, (-)-2-benzoyloxy-1-(imidazo[1,2-a]pyridin-6-yl)-N-methylcyclohexanecarbothioamide] |  | 0.575 |  | -26.6 | 312
3 | CNC(=S)C1(n2cnc([N+](=O)[O-])c2)CCCCC1OC(=O)c1ccccc1 (stereo not drawn) [Compound 9, 2-benzoyloxy-N-methyl-1-(4-nitroimidazol-1yl)cyclohexanecarbothioamide] | 479 | 11 | 62.4 ± 3.7 | -14.9 | 131
4 | CNC(=S)C1(c2ccc3nc(C(F)(F)F)cn3c2)CCCCC1=O (single isomer, unassigned; (-)) [Compound 12, (-)-1-(2-trifluoromethylimidazo-[1,2-a]pyridin-6-yl)-N-methyl-2-oxocyclohexanecarbothioamide] |  | 20 |  | -16.5 | 86.5
5 | CNC(=S)C1(c2ccc3nccn3c2)CCCCC1NCc1ccccc1 (stereo not drawn) [Compound 7] |  | 1.78 | 87.9 ± 0.1 | -7.3 | 22.8
6 | CNC(=S)C1(n2cnc([N+](=O)[O-])c2)CCCCC1OCc1ccccc1 (stereo not drawn) [Compound 10, 2-benzyloxy-N-methyl-1-(4-nitroimidazol-1yl)cyclohexanecarbothioamide] | 51.3 | 0.49 | 58.8 ± 5.7 | -16.3 | 169

The remaining molecules from weak to strong by IC50 (rat aorta), led by results:

Row | IC50 [1] [nM] | IC50 (rat aorta) [nM] | SMILES | response vs control in vivo at 1 mg/kg [2] [%] | change in vivo at 0.003 mg/kg [3, 4] [%] | change in vivo at 0.003 mg/kg [3, 5] [%]
7 |  | 55 | CNC(=S)C1(c2ccc3nccn3c2)CCCC[S+]1[O-] (stereo not drawn) [Compound 8, 2-(imidazo[1,2-a]pyridin-6-yl)-N-methyltetrahydrothiopyran-2-carbothioamide1-oxide] | 62 ± 6.5 | -10.5 | 70.7
8 |  | 20 | CNC(=S)C1(c2ccc3nc(C)cn3c2)CCCC[S+]1[O-] (single isomer, unassigned; (-)) [Compound 13, (-)-2-(2-methylimidazo-[1,2-a]pyridin-6-yl)-N-methyltetrahydrothiopyran-2-carbonthioamide 1-oxide] |  | -30 | 228
9 | 2630 | 18.6 | CNC(=S)C1(c2ccc3nccn3c2)CCCCC1=O (single isomer, unassigned; (-)) [Compound 1, (-)-1-(imidazo[1,2-a]pyridin-6-yl)-N-methyl-2-oxocyclohexanecarbothioamide] | 51.6 ± 5.1 | -22.1 | 78.6
10 | 759 | 6.17 | CNC(=S)C1(c2ccc3nc(C)cn3c2)CCCCC1=O (single isomer, unassigned; (-)) [Compound 3, (-)-N-methyl-1-(2-methylimidazo-[1,2-a]pyridin-6-yl)-2-oxocyclohexanecarbothioamide] | 45.9 ± 3.9 | -27 | 198
11 | 204 | 1.91 | CNC(=S)C1(c2ccc3nccn3c2)CCCCC1=NOCc1ccccc1 (stereo not drawn) [Compound 6, anti-2-benzyloxyimino-1-(imidazo[1,2-a]pyridin-6-yl)-N-methylcyclohexanecarbothioamide] | 59.3 ± 6.9 | -25.2 | 67.5
12 | 148 | 0.55 | CNC(=S)C1(n2cnc([N+](=O)[O-])c2)CCCCC1=NOCc1ccccc1 (stereo not drawn) [Compound 11, anti-2-benzyloxyimino-N-methyl-1-(4-nitroimidazol-1-yl)cyclohexanecarbothioamide] | 72.1 ± 4.5 | -28.5 | 152
